Experimental data as given in PubChem BioAssay AID330 (DTP/NCI, 2004).
Several values for one entry are separate records, joined by “and”; a condition that tells them apart may be missing. Identical values can stand only once. Toxic doses and inconclusive results are not listed.

System: P388 leukemia ip, CD2F1 mice, survival T/C
Assay: NCI In Vivo Anticancer Drug Screen. Data for tumor model P388 Leukemia (intraperitoneal) in CD2F1 (CDF1) mice
Settings: endpoint: median survival time, higher = longer survival
Summary of the method: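 Mice carrying the transplanted tumor received test compound or vehicle. Survival was recorded in each group, and the value is the treated-group measurement divided by that of the vehicle-treated control group.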

[1] = dose: 50.0 mg/kg/injection, schedule: Q01DX009 (ip), vehicle: saline with Tween-80
[2] = dose: 100.0 mg/kg/injection, schedule: Q01DX009 (ip), vehicle: saline with Tween-80
[3] = dose: 200.0 mg/kg/injection, schedule: Q01DX009 (ip), vehicle: saline with Tween-80
[4] = dose: 60.0 mg/kg/injection, schedule: Q01DX005 (ip), vehicle: saline with Tween-80
[5] = dose: 120.0 mg/kg/injection, schedule: Q01DX005 (ip), vehicle: saline with Tween-80
[6] = dose: 240.0 mg/kg/injection, schedule: Q01DX005 (ip), vehicle: saline with Tween-80
[7] = dose: 50.0 mg/kg/injection, schedule: Q01DX009 (ip), vehicle: Klucel (hydroxypropylcellulose) (HPC)
[8] = dose: 100.0 mg/kg/injection, schedule: Q01DX009 (ip), vehicle: Klucel (hydroxypropylcellulose) (HPC)
[9] = dose: 25.0 mg/kg/injection, schedule: Q01DX009 (ip), vehicle: saline with Tween-80
[10] = dose: 6.25 mg/kg/injection, schedule: Q01DX009 (ip), vehicle: Klucel (hydroxypropylcellulose) (HPC)

## COC(=O)[C@]1(O)Cc2c(O)c3c(c(O)c2[C@@H](OC2CC(N)C(O)C(C)O2)C1)C(=O)c1c(OC)cccc1C3=O (some centres not stated)
dose: 1.56 mg/kg/injection, schedule: Q01DX009 (ip), vehicle: water
  T/C: 110 % of control
dose: 3.13 mg/kg/injection, schedule: Q01DX009 (ip), vehicle: water
  T/C: 108 % of control
dose: 6.25 mg/kg/injection, schedule: Q01DX009 (ip), vehicle: water
  T/C: 109 % of control and 114 % of control
dose: 12.5 mg/kg/injection, schedule: Q01DX009 (ip), vehicle: water
  T/C: 116 % of control and 118 % of control
dose: 25.0 mg/kg/injection, schedule: Q01DX009 (ip), vehicle: water
  T/C: 116 % of control

## CCOC(=O)C(C(=O)OCC)C1CCC2(C)CCC(=O)C=C2C1 (configuration not stated)
[1]
  T/C: 95 % of control
[2]
  T/C: 100 % of control
[3]
  T/C: 105 % of control

## CCOC(=O)c1coc(N)n1
dose: 12.5 mg/kg/injection, schedule: Q01DX009 (ip), vehicle: other
  T/C: 98 % of control
dose: 25.0 mg/kg/injection, schedule: Q01DX009 (ip), vehicle: other
  T/C: 100 % of control
dose: 50.0 mg/kg/injection, schedule: Q01DX009 (ip), vehicle: other
  T/C: 106 % of control
dose: 100.0 mg/kg/injection, schedule: Q01DX009 (ip), vehicle: other
  T/C: 107 % of control
dose: 200.0 mg/kg/injection, schedule: Q01DX009 (ip), vehicle: other
  T/C: 103 % of control

## CN1C(=O)C(=CN(C)c2ccccc2)C(=O)N(C)C1=O
dose: 25.0 mg/kg/injection, schedule: Q04DX003 (ip), vehicle: saline with Tween-80
  T/C: 111 % of control
dose: 50.0 mg/kg/injection, schedule: Q04DX003 (ip), vehicle: saline with Tween-80
  T/C: 112 % of control
dose: 100.0 mg/kg/injection, schedule: Q04DX003 (ip), vehicle: saline with Tween-80
  T/C: 114 % of control and 96 % of control

## CCN(CC)CC(=O)O[C@]1(CC)C(=O)OCc2c1cc1n(c2=O)Cc2cc3ccccc3nc2-1
dose: 0.5 mg/kg/injection, schedule: Q01DX005 (ip), vehicle: water
  T/C: 110 % of control
dose: 1.0 mg/kg/injection, schedule: Q01DX005 (ip), vehicle: water
  T/C: 115 % of control
dose: 2.0 mg/kg/injection, schedule: Q01DX005 (ip), vehicle: water
  T/C: 115 % of control
dose: 8.0 mg/kg/injection, schedule: Q01DX005 (ip), vehicle: water
  T/C: 161 % of control and 163 % of control

## COc1ccc2nc3cc(Cl)ccc3c(NCCOCCO)c2c1
[1]
  T/C: 101 % of control
[2]
  T/C: 109 % of control

## CCOC1=C(C)N2/C(=C/C(=O)OC)[C@@H]3C[C@@H](C)C[C@]2(O3)S1
[4]
  T/C: 101 % of control
[5]
  T/C: 94 % of control
[6]
  T/C: 104 % of control

## COC1OC(CO)C2OC12 (configuration not stated)
dose: 50.0 mg/kg/injection, schedule: Q01DX005 (ip), vehicle: saline
  T/C: 93 % of control and 103 % of control
dose: 100.0 mg/kg/injection, schedule: Q01DX005 (ip), vehicle: saline
  T/C: 94 % of control and 100 % of control
dose: 200.0 mg/kg/injection, schedule: Q01DX005 (ip), vehicle: saline
  T/C: 88 % of control and 99 % of control

## Oc1[nH]c2ccccc2c1N=Nc1nnc(-c2ccccc2)c(-c2ccccc2)n1
dose: 50.0 mg/kg/injection, schedule: Q01DX005 (ip), vehicle: saline with Tween-80
  T/C: 95 % of control
dose: 100.0 mg/kg/injection, schedule: Q01DX005 (ip), vehicle: saline with Tween-80
  T/C: 107 % of control
dose: 200.0 mg/kg/injection, schedule: Q01DX005 (ip), vehicle: saline with Tween-80
  T/C: 101 % of control

## C=C1C(=O)OC2CC(C)C3CC(OC)OC(OC)C3(C)CC12 (configuration not stated)
[7]
  T/C: 105 % of control and 97 % of control
[8]
  T/C: 103 % of control and 114 % of control
dose: 200.0 mg/kg/injection, schedule: Q01DX009 (ip), vehicle: Klucel (hydroxypropylcellulose) (HPC)
  T/C: 123 % of control and 97 % of control
dose: 400.0 mg/kg/injection, schedule: Q01DX009 (ip), vehicle: Klucel (hydroxypropylcellulose) (HPC)
  T/C: 119 % of control

## CCN(CC)CCOC(=O)Nc1cc(C(F)(F)F)ccc1Cl
[4]
  T/C: 111 % of control
[5]
  T/C: 109 % of control
[6]
  T/C: 90 % of control

## CNc1c(F)c(C#N)c(F)c(F)c1C#N
dose: 12.5 mg/kg/injection, schedule: Q01DX009 (ip), vehicle: saline with Tween-80
  T/C: 96 % of control
[9]
  T/C: 89 % of control
[1]
  T/C: 100 % of control

## Cc1ccc(S(=O)(=O)N/N=C/c2ccccc2Cl)cc1
[10]
  T/C: 94 % of control
dose: 12.5 mg/kg/injection, schedule: Q01DX009 (ip), vehicle: Klucel (hydroxypropylcellulose) (HPC)
  T/C: 98 % of control
dose: 25.0 mg/kg/injection, schedule: Q01DX009 (ip), vehicle: Klucel (hydroxypropylcellulose) (HPC)
  T/C: 106 % of control
[9]
  T/C: 106 % of control
[7]
  T/C: 104 % of control
[1]
  T/C: 104 % of control
[8]
  T/C: 106 % of control
[2]
  T/C: 106 % of control
[3]
  T/C: 100 % of control

## N#CN=CN1CCN(c2ccccc2)CC1
[1]
  T/C: 100 % of control
[2]
  T/C: 97 % of control
[3]
  T/C: 99 % of control

## CCOC(=O)/C(C#N)=C(O)\C(=C\c1ccc(Cl)cc1)NC(=O)c1ccc(NC(C)=O)cc1
[4]
  T/C: 108 % of control
[5]
  T/C: 97 % of control
[6]
  T/C: 97 % of control

## CC1(C)CCCC(C)(C)N1CC#CCON1C(=O)c2ccccc2C1=O
dose: 100.0 mg/kg/injection, schedule: Q04DX002 (ip), vehicle: Klucel (hydroxypropylcellulose) (HPC)
  T/C: 102 % of control
dose: 200.0 mg/kg/injection, schedule: Q04DX002 (ip), vehicle: Klucel (hydroxypropylcellulose) (HPC)
  T/C: 96 % of control
dose: 400.0 mg/kg/injection, schedule: Q04DX002 (ip), vehicle: Klucel (hydroxypropylcellulose) (HPC)
  T/C: 105 % of control

## COc1cccc(-n2cc[n+](C)c2/C=N/O)c1
[9]
  T/C: 105 % of control
[1]
  T/C: 108 % of control

## CNC(=N)c1ccc(NC(=N)c2ccc(NC(=N)c3ccc(NC(=N)c4ccc(C(=N)NC)cc4)cc3)cc2)cc1
dose: 9.0 mg/kg/injection, schedule: Q01DX009 (ip), vehicle: saline with Tween-80
  T/C: 154 % of control
dose: 13.0 mg/kg/injection, schedule: Q01DX009 (ip), vehicle: saline with Tween-80
  T/C: 190 % of control
dose: 20.0 mg/kg/injection, schedule: Q01DX009 (ip), vehicle: saline with Tween-80
  T/C: 254 % of control

## CS(=O)(=O)OCCN(CCOS(C)(=O)=O)c1ccc(N=Nc2ccccc2C(=O)O)cc1
dose: 0.78 mg/kg/injection, schedule: Q01DX009 (ip), vehicle: Klucel (hydroxypropylcellulose) (HPC)
  T/C: 168 % of control
dose: 1.56 mg/kg/injection, schedule: Q01DX009 (ip), vehicle: Klucel (hydroxypropylcellulose) (HPC)
  T/C: 187 % of control and 206 % of control
dose: 3.12 mg/kg/injection, schedule: Q01DX009 (ip), vehicle: Klucel (hydroxypropylcellulose) (HPC)
  T/C: 233 % of control
dose: 3.13 mg/kg/injection, schedule: Q01DX009 (ip), vehicle: Klucel (hydroxypropylcellulose) (HPC)
  T/C: 242 % of control
[10]
  T/C: 107 % of control and 213 % of control

## CC(/C=N/Nc1ccccc1)=N\N=c1/scc(-c2ccc(Br)cc2)n1-c1ccc(Br)cc1
dose: 100.0 mg/kg/injection, schedule: Q04DX002 (ip), vehicle: saline with Tween-80
  T/C: 86 % of control
dose: 200.0 mg/kg/injection, schedule: Q04DX002 (ip), vehicle: saline with Tween-80
  T/C: 86 % of control

## COc1cccc2c(NCCCCCCCCNc3c4ccc([N+](=O)[O-])cc4nc4c(OC)cccc34)c3ccc([N+](=O)[O-])cc3nc12
dose: 2.5 mg/kg/injection, schedule: Q01DX009 (ip), vehicle: other
  T/C: 157 % of control
dose: 5.0 mg/kg/injection, schedule: Q01DX009 (ip), vehicle: other
  T/C: 152 % of control
dose: 10.0 mg/kg/injection, schedule: Q01DX009 (ip), vehicle: other
  T/C: 158 % of control and 172 % of control
dose: 20.0 mg/kg/injection, schedule: Q01DX009 (ip), vehicle: other
  T/C: 170 % of control
dose: 40.0 mg/kg/injection, schedule: Q01DX009 (ip), vehicle: other
  T/C: 166 % of control

## C(=C\C1CC2CCCN2O1)/c1ccccc1 (configuration not stated)
[9]
  T/C: 90 % of control
[1]
  T/C: 105 % of control
[2]
  T/C: 100 % of control
[3]
  T/C: 107 % of control

## NC1=NS(=O)(=O)Nc2nn(-c3ccccc3)nc21
dose: 100.0 mg/kg/injection, schedule: Q01DX001 (ip), vehicle: saline with Tween-80
  T/C: 107 % of control
dose: 200.0 mg/kg/injection, schedule: Q01DX001 (ip), vehicle: saline with Tween-80
  T/C: 101 % of control
dose: 400.0 mg/kg/injection, schedule: Q01DX001 (ip), vehicle: saline with Tween-80
  T/C: 99 % of control

## CCCCCCCCCCCCSC(SCCCCCCCCCCCC)c1ccc(OCC(=O)O)cc1
dose: 25.0 mg/kg/injection, schedule: Q04DX003 (ip), vehicle: DMSO
  T/C: 96 % of control
dose: 50.0 mg/kg/injection, schedule: Q04DX003 (ip), vehicle: DMSO
  T/C: 91 % of control
dose: 100.0 mg/kg/injection, schedule: Q04DX003 (ip), vehicle: DMSO
  T/C: 94 % of control
dose: 200.0 mg/kg/injection, schedule: Q04DX003 (ip), vehicle: DMSO
  T/C: 91 % of control
